Test results: paper PMC11481577, “Allosteric coupling of substrate binding and proton translocation in MmpL3 transporter from Mycobacterium tuberculosis” (mBio, 2024)

Tests used:
[1] = target: MmpL3ΔC H68A (Mycobacterium tuberculosis, UniProt P9WJV5, H68A); assay type: biochemical
[2] = target: T1, MmpL3ΔC S66A (Mycobacterium tuberculosis, UniProt P9WJV5, S66A); assay type: biochemical
[3] = target: T2, MmpL3ΔC D139A (Mycobacterium tuberculosis, UniProt P9WJV5, D139A); assay type: biochemical
[4] = target: T3, MmpL3ΔC (Mycobacterium tuberculosis, UniProt P9WJV5); assay type: biochemical
[5] = target: T3, MmpL3ΔC; assay type: biochemical; remark: listed apart in the source
[6] = target: T4, MmpL3ΔC D58A (Mycobacterium tuberculosis, UniProt P9WJV5, D58A); assay type: biochemical
[7] = target: T3, MmpL3ΔC; assay type: biochemical; remark: listed apart in the source
[8] = target: T4, MmpL3ΔC D58A; assay type: biochemical; remark: listed apart in the source
[9] = target: T1, MmpL3ΔC S66A; assay type: biochemical; remark: listed apart in the source
[10] = target: T2, MmpL3ΔC D139A; assay type: biochemical; remark: listed apart in the source
[11] = test system: MsmgΔmmpL3/pMVGH1-mmpL3tb (D58A); assay type: cell-based; details: disc with 5 µg, 7H11-ADC agar, 4 days at 37°C

| SMILES | Rate of fluorescence change (lipid transport activity) [1] [RU/s/µM protein] | Stimulation of the variant by ligand (in words) [2] | Rate of fluorescence change (lipid transport activity) [3] [RU/s/µM protein] | Effect on H+ transfer activity (in words) [4] | Effect on asymmetry of NBD-PE lipid distribution in proteoliposomes (flippase activity) [5] | Effect on H+ transfer activity (in words) [6] | Rate of fluorescence change (lipid transport activity) [7] [RU/s/µM protein] | Rate of fluorescence change (lipid transport activity) [8] [RU/s/µM protein] | Effect on remaining lipid transfer activity (in words) [9] | Rate of fluorescence change (lipid transport activity) [9] [RU/s/µM protein] | Effect on H+ transfer activity (in words) [10] | Susceptibility to growth inhibition (zone of inhibition) compared with cells producing WT Mtb MmpL3 [11] |
| --- | --- | --- | --- | --- | --- | --- | --- | --- | --- | --- | --- | --- |
| OC[C@H]1O[C@H](O[C@H]2O[C@H](CO)[C@@H](O)[C@H](O)[C@H]2O)[C@H](O)[C@@H](O)[C@@H]1O [trehalose] | 0.37 | no significant stimulation | 18.84 | weakly | unaffected | weakly | 2.96 | 7.22 | inhibited | 1.20 |  |  |
| CCCCCCCCCCCCCCCC(=O)OC[C@H]1O[C@H](O[C@H]2O[C@H](CO)[C@@H](O)[C@H](O)[C@H]2O)[C@H](O)[C@@H](O)[C@@H]1O [Tre-C16] | -0.62 | no significant stimulation | 13.43 | strongly stimulated | unaffected | stimulated | 1.32 | 11.53 | inhibited | -0.02 | stimulated by Tre-C16 even more strongly than the parent protein |  |
| CC(C)=CCC/C(C)=C/CNCCNC1C2CC3CC(C2)CC1C3 (centres unmarked) [SQ109] | -0.12 |  | 2.52 |  | unaffected |  | 2.04 | 10.7 | inhibited | -0.15 |  | less susceptible |
